{
  "source": "patent US6444692B1",
  "about": "“Fungicidal mixtures” (BASF Aktiengesellschaft, priority 1997, dated 2002)",
  "test_system": "powdery mildew of wheat (Erysiphe graminis forma specialis tritici)",
  "experiment": "Activity against powdery mildew of wheat (protective spray on wheat seedlings, visual % infection of leaf area after 7 days)",
  "assay_type": "in vivo",
  "details": "single active ingredient, wheat seedlings cv. Frühgold",
  "excerpt": "The active ingredients, separately or together, are formulated as a 10% emulsion in a mixture of 70% by weight of cyclohexanone, 20% by weight of Nekanil® LN (Lutensol® AP6, wetting agent having emulsifying and dispersing action, based on ethoxylated alkylphenols) and 10% by weight of Emulphor® EL (Emulan® EL, emulsifier based on ethoxylated fatty alcohols) and diluted with water to give the desired concentration.\nLeaves of wheat seedlings cv. “Frühgold” which had been grown in pots were sprayed to runoff point with an aqueous preparation of active ingredient which had been prepared from a stock solution comprising 10% of active ingredient, 63% of cyclohexanone and 27% of emulsifier and, 24 hours after the spray coating had dried on, dusted with spores of powdery mildew of wheat (Erysiphe graminis forma specialis tritici). The test plants were subsequently placed in a greenhouse at from […] and a relative atmospheric humidity of 60 to 90%. After 7 days, the extent of mildew development was determined visually as % infection of the total leaf area.\nEvaluation is carried out by determining the infected leaf areas in percent. These percentages are converted into efficacies. The expected efficacies of the mixtures of the active ingredients are determined using Colby's formula [R. S. Colby, Weeds 15, 20-22 (1967)] and compared with the observed efficacies. […]\nThe efficacy (E) is calculated as follows using Abbot's formula: […]\nα corresponds to the fungal infection of the treated plants in % and\nβ corresponds to the fungal infection of the untreated (control) plants in %\nAn efficacy of 0 means that the infection level of the treated plants corresponds to that of the untreated control plants; an efficacy of 100 means that the treated plants were not infected.",
  "data": [
    {"smiles": "CO/N=C(\\C(=O)OC)c1ccccc1COc1ccccc1C", "note": "[Compound II]", "values": [
      {"measurement": "Efficacy in % of the untreated control", "setting": "0.125 ppm in the spray liquor", "value": 0, "unit": "%"}
    ]},
    {"smiles": "CNC(=O)/C(=N\\OC)c1ccccc1COc1cc(C)ccc1C", "note": "[Compound III]", "values": [
      {"measurement": "Efficacy in % of the untreated control", "setting": "0.125 ppm in the spray liquor", "value": 20, "unit": "%"}
    ]},
    {"smiles": "COC(=O)N(OC)c1ccccc1COc1ccn(-c2ccc(Cl)cc2)n1", "note": "[Compound I.32]", "values": [
      {"measurement": "Efficacy in % of the untreated control", "setting": "0.125 ppm in the spray liquor", "value": 0, "unit": "%"},
      {"measurement": "Efficacy in % of the untreated control", "setting": "0.5 ppm in the spray liquor", "value": 10, "unit": "%"}
    ]}
  ]
}
